Activity calls are given as the source filed them. The calls are words filed in the database; no cut-off is given here.
Assay: Inhibition of tubulin polymerization

| inhibition | IC50 [µM] | SMILES |
| --- | --- | --- |
| inactive | – | CCCCCc1c(C)c(O)cc(O)c1Oc1cc(OC)cc2c1C(=O)OC2CCCC (stereo not drawn) |
| inactive | – | CCCCCc1cc(O)cc(O)c1Oc1cc(OC)cc2c1C(=O)OC2(O)CCCC (stereo not drawn) |
| – | 100 | CCCCCc1c2c(cc(O)c1C(=O)O)OC(=O)c1c(cc(OC)cc1C(=O)CCCC)O2 [LOBARIC ACID] |

Source: ChEMBL document CHEMBL1158446, “Antimitotic activity of lobaric acid and a new benzofuran, sakisacaulon A from Stereocaulon sasakii” (Bioorg Med Chem Lett, 2009)
